Reference: article PMC12629174, “Exploring Bioactive Metabolites From Fusarium falciforme and Aspergillus terreus Isolated From Protease‐Rich Fruits: Antifungal, Antitrypanosomal, and Enzymatic Inhibitory Activities” (Chemistry & Biodiversity, 2025)
Where two headings read alike, the source gives them in different places.

Key:
[1] = molecular target: T1, papain (Carica papaya, UniProt P00784); test: fluorimetric papain assay with ZFR-MCA substrate; assay type: biochemical
T1 sequence (P00784 134-345): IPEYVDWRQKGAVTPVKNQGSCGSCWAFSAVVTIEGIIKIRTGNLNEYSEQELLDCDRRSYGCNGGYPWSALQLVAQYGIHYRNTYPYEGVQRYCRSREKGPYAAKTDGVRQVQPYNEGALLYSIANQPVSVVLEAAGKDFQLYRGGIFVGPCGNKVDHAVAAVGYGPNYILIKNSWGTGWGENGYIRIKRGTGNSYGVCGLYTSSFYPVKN

[2] = molecular target: T1, papain; test: fluorimetric papain assay with ZFR-MCA; titration of papain by the irreversible inhibitor (positive control); assay type: biochemical; conditions: read-out: % inhibition at 1 μM (25 nM in the well)

SMILES | IC50 ([1]; read-out: IC50) | also measured
CC(=C\C(=O)O)/C=C(\C)C[C@H](C)CCCC[C@@H](O)C(CO)C(=O)O (stereo partly shown) [compound 2, fusaridioic acid A] | 28.6 µM | –
CC(C)C[C@H](NC(=O)C1OC1C(=O)O)C(=O)NCCCCNC(=N)N (stereo partly drawn) [E-64, 1‐[L‐N‐(trans‐epoxysuccinyl)leucyl] amino‐4‐guanidinobutane] | – | inhibition at 1 µM [2]: 90%
CC(=C\C(=O)O)/C=C(\C)C[C@H](C)CCCC[C@H]1OC(=O)[C@@H]1CO [compound 1, hymeglusin] | 9.38 µM | –
COC(=O)[C@]1(Cc2ccc(O)c(CC=C(C)C)c2)OC(=O)C(O)=C1c1ccc(O)cc1 [compound 3, butyrolactone I] | – | IC50 [1]: 6.24 µM
